Experimental data reported in patent publication US11672792B2, “Topical formulations comprising montelukast and combinations with mussel adhesive proteins” (ENLITISA (SHANGHAI) PHARMACEUTICAL CO., LTD, priority 2017, dated 2023).
Several values for one entry are separate records, joined by “and”; a condition that tells them apart may be missing. Equal entries are not always repeated.

Assays:
[1] = system: full thickness skin wounds; assay: Acute Wound Model (Example 6); assay type: in vivo, C57BL/6 mice; settings: for Hyp content (μg/mg tissue weight), single animals / Hyp content, Mean (n = 4): wound tissue
Protocol: 6-8 weeks old male C57BL/6 mice were supplied by Changzhou Cvens Experimental Animal Co. Ltd. Prior to any experiments being conducted, mice were housed under standardized conditions (at a constant temperature or 22±2° C., with alternating 12 hour periods of light and darkness), and were fed on a standard mouse diet with water, for about a week. […] The hair on the back was shaved by a baby hair shaver and depilated with cream. […] EMS skin biopsy punch (Electron Microscopy Sciences, P.O. […] Full thickness skin was removed and the depth reached the fascia. The wounds left open without suture. […] The model group was given same amount of normal saline. Recombinant Human Epidermal Growth Factor (rhEGF, Shanghai Haohai Biological Technology Co. Ltd, Shanghai, China) was purchased and prepared according to the manufacturer's instructions. Lyophilized rhEGF powder (100000 IU/vial) was dissolved in 20 mL of normal saline to make a solution with a 5000 IU/mL concentration. […] MedChemExpress, MCE China, Shanghai, China) was obtained in a powder form and was dissolved in ultrapure water to obtain solutions with concentrations as described in Table 22 (L, M and H indicate low, medium and high montelukast doses, respectively) Wounds were wrapped up with transparent dresser after drug administration. Photographs were taken for each wound every other day from Day 0. Photos were scanned into a computer, and wound areas calculated using ImageJ image analysis software (National Institutes of Health, […]). The unhealed wound area was expressed as a percentage of the original wound area: At/A0×100%, where A0 and At refer to the initial area at Day 0 and the wound area at the date of measurement (time t), respectively. […] Half of the tissue was preserved in 10% neutral buffered formalin (Nanchang […] Experimental Equipment Co., Ltd., Nanchang, […] Provence, China), and analyzed by histological embedding in paraffin wax, sectioning and staining. HE and Masson stained paraffin sections were analyzed under an optical microscope. Skin regeneration, fibroblastic proliferation, collagen regeneration scores and inflammation scores were estimated. The rest of the samples were stored at -80° C. for further analysis. […] The supernatant was collected, and the extracted protein was used for ELISA analysis using standard ELISA test kits and an ELISA reader (SH-1000 Hitachi, Japan). […] (Beijing, China).

in vivo = settings: Sprague Dawley, rat, skin (unscalded intact, full thickness), topical, 1 g montelukast cream

- concentration at 0 h (in vivo): 0 ng/g
- concentration at 1 h (in vivo): 36700 ng/g
- concentration at 2 h (in vivo): 68000 ng/g
- concentration at 3 h (in vivo): 13400 ng/g
- concentration at 6 h (in vivo): 15600 ng/g
- concentration at 8 h (in vivo): 55300 ng/g
Structure (SMILES): CC(C)(O)c1ccccc1CC[C@@H](SCC1(CC(=O)O)CC1)c1cccc(/C=C/c2ccc3ccc(Cl)cc3n2)c1 [Mon, Montelukast sodium]
- remaining wound area versus the initial wound ([1]; Day 2, Mon H 200 μg/wound): 76.11 ± 6.40%
- remaining wound area versus the initial wound ([1]; Day 2, Mon L 50 μg/wound once daily topically): 78.41 ± 9.51%
- remaining wound area versus the initial wound ([1]; Day 2, Mon M 100 μg/wound): 79.97 ± 11.79%
- improvement rate (wound healing) ([1]; Day 4, Mon H 200 μg/wound): about 39%
- remaining wound area versus the initial wound ([1]; Day 4, Mon H 200 μg/wound): 48.60 ± 6.49%
- remaining wound area versus the initial wound ([1]; Day 4, Mon L 50 μg/wound): 57.59 ± 11.54%
- remaining wound area versus the initial wound ([1]; Day 4, Mon M 100 μg/wound): 55.09 ± 8.83%
- remaining wound area versus the initial wound ([1]; Day 6, Mon H 200 μg/wound): 29.13 ± 6.16%
- remaining wound area versus the initial wound ([1]; Day 6, Mon L 50 μg/wound): 27.53 ± 3.76%
- remaining wound area versus the initial wound ([1]; Day 6, Mon M 100 μg/wound): 28.51 ± 1.03%
- remaining wound area versus the initial wound ([1]; Day 8, Mon H 200 μg/wound): 14.59 ± 3.04%
- remaining wound area versus the initial wound ([1]; Day 8, Mon L 50 μg/wound): 14.08 ± 2.85%
- remaining wound area versus the initial wound ([1]; Day 8, Mon M 100 μg/wound): 13.87 ± 3.51%
- remaining wound area versus the initial wound ([1]; Day 12, Mon H 200 μg/wound): 2.48 ± 3.43%
- remaining wound area versus the initial wound ([1]; Day 12, Mon L 50 μg/wound): 1.15 ± 2.29%
- remaining wound area versus the initial wound ([1]; Day 12, Mon M 100 μg/wound): 2.15 ± 3.73%
- Hyp content (μg/mg tissue weight), single animals ([1]; Mon H 200 μg/wound): 4.62 μg/mg tissue weight and 5.83 μg/mg tissue weight and 3.99 μg/mg tissue weight and 4.64 μg/mg tissue weight
- Hyp content, Mean (n = 4) ([1]; Mon H 200 μg/wound): 4.77 μg/mg tissue weight
- Hyp content (μg/mg tissue weight), single animals ([1]; Mon L 50 μg/wound): 4.65 μg/mg tissue weight and 4.41 μg/mg tissue weight and 6.71 μg/mg tissue weight and 6.05 μg/mg tissue weight
- Hyp content, Mean (n = 4) ([1]; Mon L 50 μg/wound): 5.46 μg/mg tissue weight
- Hyp content (μg/mg tissue weight), single animals ([1]; Mon M 100 μg/wound): 4.94 μg/mg tissue weight and 4.18 μg/mg tissue weight and 6.80 μg/mg tissue weight and 4.98 μg/mg tissue weight
- Hyp content, Mean (n = 4) ([1]; Mon M 100 μg/wound): 5.23 μg/mg tissue weight
